Reference: PubChem BioAssay AID330 (DTP/NCI, 2004)
Values joined by “and” are separate entries in the source; they are usually repeats but may differ in a detail not shown here. Identical values can stand only once. Inconclusive results and toxic doses are left out. How the source made its calls: active means survival T/C of 150% or more; inactive means T/C below 125% in these data.

System: P388 leukemia ip, CD2F1 mice, survival T/C
Assay: NCI In Vivo Anticancer Drug Screen. Data for tumor model P388 Leukemia (intraperitoneal) in CD2F1 (CDF1) mice
Details: endpoint: median survival time, higher = longer survival
Outline: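 Mice carrying the transplanted tumor received test compound or vehicle. Survival was recorded in each group, and the value is the treated-group measurement divided by that of the vehicle-treated control group.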

[1] = dose: 6.25 mg/kg/injection, schedule: Q01DX005 (ip), vehicle: saline with Tween-80
[2] = dose: 12.5 mg/kg/injection, schedule: Q01DX005 (ip), vehicle: saline with Tween-80
[3] = dose: 25.0 mg/kg/injection, schedule: Q01DX005 (ip), vehicle: saline with Tween-80
[4] = dose: 12.5 mg/kg/injection, schedule: Q01DX009 (ip), vehicle: saline with Tween-80
[5] = dose: 25.0 mg/kg/injection, schedule: Q01DX009 (ip), vehicle: saline with Tween-80
[6] = dose: 50.0 mg/kg/injection, schedule: Q01DX009 (ip), vehicle: saline with Tween-80
[7] = dose: 100.0 mg/kg/injection, schedule: Q04DX003 (ip), vehicle: saline
[8] = dose: 200.0 mg/kg/injection, schedule: Q04DX003 (ip), vehicle: saline
[9] = dose: 25.0 mg/kg/injection, schedule: Q01DX009 (ip), vehicle: Klucel (hydroxypropylcellulose) (HPC)
[10] = dose: 50.0 mg/kg/injection, schedule: Q01DX009 (ip), vehicle: Klucel (hydroxypropylcellulose) (HPC)
[11] = dose: 100.0 mg/kg/injection, schedule: Q01DX009 (ip), vehicle: Klucel (hydroxypropylcellulose) (HPC)
[12] = dose: 50.0 mg/kg/injection, schedule: Q01DX005 (ip), vehicle: Klucel (hydroxypropylcellulose) (HPC)
[13] = dose: 100.0 mg/kg/injection, schedule: Q01DX009 (ip), vehicle: saline
[14] = dose: 50.0 mg/kg/injection, schedule: Q01DX005 (ip), vehicle: saline with Tween-80
[15] = dose: 100.0 mg/kg/injection, schedule: Q01DX005 (ip), vehicle: saline with Tween-80
[16] = dose: 200.0 mg/kg/injection, schedule: Q01DX005 (ip), vehicle: saline with Tween-80
[17] = dose: 100.0 mg/kg/injection, schedule: Q01DX005 (ip), vehicle: Klucel (hydroxypropylcellulose) (HPC)
[18] = dose: 200.0 mg/kg/injection, schedule: Q01DX005 (ip), vehicle: Klucel (hydroxypropylcellulose) (HPC)
[19] = dose: 200.0 mg/kg/injection, schedule: Q01DX009 (ip), vehicle: Klucel (hydroxypropylcellulose) (HPC)

Measured: T/C

COc1ccc2c3c(cccc13)-c1ccccc1C2=O
inactive: [1] 95 % of control | [2] 91 % of control | [3] 93 % of control

O=[N+]([O-])c1c(Br)sc(Br)c1[N+](=O)[O-]
inactive: [4] 104 % of control | [5] 95 % of control | [6] 95 % of control

Sc1cn2ccccc2n1
inactive: dose: 50.0 mg/kg/injection, schedule: Q04DX003 (ip), vehicle: saline 105 % of control | [7] 97 % of control | [8] 103 % of control

CC(C#N)CCCC#N (configuration not stated)
inactive: [4] 100 % of control | [5] 100 % of control | [6] 100 % of control

Cc1c(Cl)cccc1NC(=O)Nc1nccs1
inactive: [9] 90 % of control | [10] 93 % of control | [11] 100 % of control

C=CC[C@]1(S(=O)(=O)c2ccccc2)[C@@H](N(C)C)C[C@@H](O[Si](C)(C)C(C)(C)C)[C@@H]1/C=C/[C@H](CCCCC)O[Si](C)(C)C(C)(C)C
inactive: dose: 12.5 mg/kg/injection, schedule: Q01DX005 (ip), vehicle: Klucel (hydroxypropylcellulose) (HPC) 107 % of control | dose: 25.0 mg/kg/injection, schedule: Q01DX005 (ip), vehicle: Klucel (hydroxypropylcellulose) (HPC) 111 % of control | [12] 107 % of control

CCCCCC(CN(C)C)C(O)CCc1ccc(Cl)c(Cl)c1 (configuration not stated)
inactive: [9] 106 % of control | [10] 98 % of control | [11] 104 % of control

CC(=O)OCC(Cn1ccnc1[N+](=O)[O-])OC(C)=O (configuration not stated)
inactive: dose: 12.5 mg/kg/injection, schedule: Q01DX009 (ip), vehicle: distilled water + Tween-80 100 % of control | dose: 25.0 mg/kg/injection, schedule: Q01DX009 (ip), vehicle: distilled water + Tween-80 101 % of control | dose: 50.0 mg/kg/injection, schedule: Q01DX009 (ip), vehicle: distilled water + Tween-80 100 % of control | dose: 100.0 mg/kg/injection, schedule: Q01DX009 (ip), vehicle: distilled water + Tween-80 111 % of control | dose: 200.0 mg/kg/injection, schedule: Q01DX009 (ip), vehicle: distilled water + Tween-80 108 % of control

CC1(C)CN(c2ccccc2)N(CO)C1=O
inactive: dose: 6.25 mg/kg/injection, schedule: Q04DX003 (ip), vehicle: saline 101 % of control | dose: 12.5 mg/kg/injection, schedule: Q04DX003 (ip), vehicle: saline 109 % of control

CN(C)c1ccc(/C=C/c2ccnc3ccccc23)c(F)c1
inactive: dose: 50.0 mg/kg/injection, schedule: Q01DX009 (ip), vehicle: saline 86 % of control | [13] 92 % of control | dose: 200.0 mg/kg/injection, schedule: Q01DX009 (ip), vehicle: saline 86 % of control

CC1OC(=O)c2ccccc2S1=O (configuration not stated)
inactive: dose: 100.0 mg/kg/injection, schedule: Q01DX009 (ip), vehicle: saline with Tween-80 95 % of control | dose: 200.0 mg/kg/injection, schedule: Q01DX009 (ip), vehicle: saline with Tween-80 90 % of control | dose: 400.0 mg/kg/injection, schedule: Q01DX009 (ip), vehicle: saline with Tween-80 95 % of control

Cn1c(COc2ccc(/C=N/Nc3ccnc(N/N=C/c4ccc(OCc5c[n+]6ccccc6n5C)cc4)n3)cc2)c[n+]2ccccc12
inactive: [2] 105 % of control | [3] 106 % of control | [14] 104 % of control and 107 % of control | [15] 99 % of control | [16] 97 % of control

COc1ccc(Cc2c3ccccc3cc[n+]2Cc2ccccc2)cc1OC
inactive: [1] 103 % of control | [2] 111 % of control | [3] 111 % of control | [14] 114 % of control

N#Cc1cccc[n+]1Cc1ccc([N+](=O)[O-])cc1
inactive: [4] 95 % of control | [5] 109 % of control | [6] 118 % of control

COc1cccc(C(=O)O)c1C(=O)O
inactive: dose: 25.0 mg/kg/injection, schedule: Q01DX009 (ip), vehicle: other 97 % of control | dose: 50.0 mg/kg/injection, schedule: Q01DX009 (ip), vehicle: other 100 % of control | dose: 100.0 mg/kg/injection, schedule: Q01DX009 (ip), vehicle: other 99 % of control | dose: 200.0 mg/kg/injection, schedule: Q01DX009 (ip), vehicle: other 106 % of control | dose: 400.0 mg/kg/injection, schedule: Q01DX009 (ip), vehicle: other 103 % of control

C[C@]12C=CC(=O)C=C1CC[C@@H]1[C@@H]2[C@@H](O)C[C@@]2(C)[C@H]1CC[C@]2(O)C(=O)CF
inactive: dose: 6.25 mg/kg/injection, schedule: Q01DX009 (ip), vehicle: suspension in saline 100 % of control | dose: 12.5 mg/kg/injection, schedule: Q01DX009 (ip), vehicle: suspension in saline 93 % of control | dose: 25.0 mg/kg/injection, schedule: Q01DX009 (ip), vehicle: suspension in saline 102 % of control | dose: 50.0 mg/kg/injection, schedule: Q01DX009 (ip), vehicle: suspension in saline 96 % of control

O=C1C=CC(=O)c2c(O)ccc(O)c21
inactive: dose: 0.2 mg/kg/injection, schedule: Q01DX005 (ip), vehicle: saline with Tween-80 102 % of control | dose: 0.4 mg/kg/injection, schedule: Q01DX005 (ip), vehicle: saline with Tween-80 97 % of control | dose: 0.8 mg/kg/injection, schedule: Q01DX005 (ip), vehicle: saline with Tween-80 98 % of control | dose: 1.0 mg/kg/injection, schedule: Q04DX003 (ip), vehicle: saline with Tween-80 100 % of control | dose: 2.0 mg/kg/injection, schedule: Q04DX003 (ip), vehicle: saline with Tween-80 104 % of control | dose: 4.0 mg/kg/injection, schedule: Q04DX003 (ip), vehicle: saline with Tween-80 100 % of control

CC(=O)N1CCCC2=C1CCCCCCCCCC2
inactive: [7] 99 % of control | [8] 105 % of control | dose: 400.0 mg/kg/injection, schedule: Q04DX003 (ip), vehicle: saline 96 % of control

COc1cc(-c2ccc(N=Nc3c(O)ccc4ccccc34)c(OC)c2)ccc1N=Nc1ccc2c(S(=O)(=O)O)cc(S(=O)(=O)O)c(N)c2c1O
inactive: dose: 66.0 mg/kg/injection, schedule: Q01DX009 (ip), vehicle: saline 102 % of control | [13] 118 % of control | dose: 150.0 mg/kg/injection, schedule: Q01DX009 (ip), vehicle: saline 114 % of control

Cc1cc2cc(Cl)c(CN)cc2[nH]1
inactive: dose: 25.0 mg/kg/injection, schedule: Q04DX003 (ip), vehicle: Klucel (hydroxypropylcellulose) (HPC) 97 % of control | dose: 50.0 mg/kg/injection, schedule: Q04DX003 (ip), vehicle: Klucel (hydroxypropylcellulose) (HPC) 102 % of control | dose: 100.0 mg/kg/injection, schedule: Q04DX003 (ip), vehicle: Klucel (hydroxypropylcellulose) (HPC) 105 % of control and 107 % of control

Cc1ccnc(NS(=O)(=O)c2ccc(NC(=O)Nc3cccc(Cl)c3)cc2)n1
inactive: [12] 86 % of control | [17] 87 % of control | [18] 89 % of control

[N-]=[N+]=NCCN(Cc1ccccc1)Cc1ccccc1
inactive: [14] 104 % of control | [15] 104 % of control | [16] 114 % of control

CNC(=O)O/N=C/C(C)(C)SC
inactive: dose: 0.11 mg/kg/injection, schedule: Q01DX005 (ip), vehicle: Klucel (hydroxypropylcellulose) (HPC) 101 % of control | dose: 0.23 mg/kg/injection, schedule: Q01DX005 (ip), vehicle: Klucel (hydroxypropylcellulose) (HPC) 101 % of control | dose: 0.46 mg/kg/injection, schedule: Q01DX005 (ip), vehicle: Klucel (hydroxypropylcellulose) (HPC) 101 % of control

NC1CC(=O)N(Cc2ccccc2)C1=O (configuration not stated)
inactive: dose: 50.0 mg/kg/injection, schedule: Q01DX005 (ip), vehicle: saline 97 % of control | dose: 100.0 mg/kg/injection, schedule: Q01DX005 (ip), vehicle: saline 91 % of control | dose: 200.0 mg/kg/injection, schedule: Q01DX005 (ip), vehicle: saline 93 % of control

CS(=O)(=O)C(CCC(=O)c1cccs1)C(=O)c1ccccc1 (configuration not stated)
inactive: [12] 89 % of control | [17] 91 % of control | [18] 89 % of control

CCOC(=O)c1ccc(NC(=S)P(=O)(c2ccccc2)c2ccccc2)cc1
inactive: [10] 88 % of control | [11] 89 % of control | [19] 94 % of control

Cn1c(=S)sc2ccc(S(=O)(=O)C(F)F)cc21
inactive: [9] 103 % of control | [10] 112 % of control | [11] 107 % of control | [19] 108 % of control
